Experimental data as given in patent US7943770B2, “Fused quinoline derivative and use thereof” (Takeda Pharmaceutical Company Limited, priority 2004, dated 2011).

The compounds below were run against T1, hNK2 receptor (Homo sapiens, UniProt P21452) (assay: Radio-ligand ([125I]-NKA) receptor binding inhibitory activity using membrane fraction of hNK2 receptor-expressing CHO cell). Conditions: membrane fraction of hNK2 receptor-expressing CHO cells, 25° C., 30 min.
T1 construct: host or cells: CHO cells
T1 sequence (P21452 1-398): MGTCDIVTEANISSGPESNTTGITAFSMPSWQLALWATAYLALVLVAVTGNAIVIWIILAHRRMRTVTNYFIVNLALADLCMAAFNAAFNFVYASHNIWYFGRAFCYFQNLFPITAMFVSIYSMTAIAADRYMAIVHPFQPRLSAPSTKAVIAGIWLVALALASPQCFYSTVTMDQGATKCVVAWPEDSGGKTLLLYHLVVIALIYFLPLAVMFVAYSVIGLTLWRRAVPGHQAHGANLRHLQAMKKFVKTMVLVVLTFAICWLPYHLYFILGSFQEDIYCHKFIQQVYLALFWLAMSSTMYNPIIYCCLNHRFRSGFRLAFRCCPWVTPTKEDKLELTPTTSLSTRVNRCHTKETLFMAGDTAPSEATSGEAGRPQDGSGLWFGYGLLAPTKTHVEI
Outline: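 Inhibition of [125I]-NKA binding ([…] solution added) measured after 30 min at 25 °C using hNK2-CHO membrane fraction (20 μg/mL suspension) in pH 7.4 Tris buffer containing MnCl2, BSA and protease inhibitors. Filter-bound counts read; activity calculated as fraction of specific binding, non-specific defined with unlabeled NKA.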
`COC[C@@H]1Nc2ccccc2[C@H]2[C@@H]1CCN2C(=O)[C@H]1CCCC[C@H]1NC(=O)c1ccc(N2CCCCC2)nc1` [Example 254, N-((1R,2S)-2-{[(3aR,4R,9bR)-4-(Methoxymethyl)-2,3,3a,4,5,9b-hexahydro-1H-pyrrolo[3,2-c]quinolin-1-yl]carbonyl}cyclohexyl)-6-piperidin-1-ylnicotinamide] was tested, and the IC50 was under 1 nM. `O=C(Nc1ccc(F)cc1)N[C@@H]1CCCC[C@@H]1C(=O)N1CC[C@@H]2[C@H](c3ncc[nH]3)Nc3ccccc3[C@@H]21` [Example 298, N-(4-Fluorophenyl)-N′-((1R,2S)-2-{[(3aR,4R,9bR)-4-(1H-imidazol-2-yl)-2,3,3a,4,5,9b-hexahydro-1H-pyrrolo[3,2-c]quinolin-1-yl]carbonyl}cyclohexyl)urea] gave an IC50 of under 1 nM. In the case of `Cc1ccc(C(=O)N[C@@H]2CCCC[C@@H]2C(=O)N2CC[C@@H]3[C@H](c4ccccc4)Nc4ccccc4[C@@H]32)cc1` [Example 99, 4-Methyl-N-((1R,2S)-2-{[(3aR,4R,9bR)-4-phenyl-2,3,3a,4,5,9b-hexahydro-1H-pyrrolo[3,2-c]quinolin-1-yl]carbonyl}cyclohexyl)benzamide], the IC50 is reported as under 10 nM. In the case of `O=C(CCCCCO)N[C@@H]1CCCC[C@@H]1C(=O)N1CC[C@@H]2[C@H](c3ccccc3)Nc3ccccc3[C@@H]21` [Example 119, 6-Hydroxy-N-((1R,2S)-2-{[(3aR,4R,9bR)-4-phenyl-2,3,3a,4,5,9b-hexahydro-1H-pyrrolo[3,2-c]quinolin-1-yl]carbonyl}cyclohexyl)hexanamide], the IC50 is reported as under 10 nM. In the case of `O=C(N[C@@H]1CCCC[C@@H]1C(=O)N1CC[C@@H]2[C@H](c3ccco3)Nc3ccccc3[C@@H]21)c1ccccc1` (relative stereo) [Example 15, N-((1R,2S)-2-{[(3aR*,4R*,9bR*)-4-(2-Furyl)-2,3,3a,4,5,9b-hexahydro-1H-pyrrolo[3,2-c]quinolin-1-yl]carbonyl}cyclohexyl)benzamide], the IC50 is reported as under 10 nM. `O=C(/C=C/c1ccc(C(F)(F)F)cc1)N[C@@H]1CCCC[C@@H]1C(=O)N1CC[C@@H]2[C@H](c3ncc[nH]3)Nc3ccccc3[C@@H]21` [Example 294, (2E)-N-((1R,2S)-2-{[(3aR,4R,9bR)-4-(1H-Imidazol-2-yl)-2,3,3a,4,5,9b-hexahydro-1H-pyrrolo[3,2-c]quinolin-1-yl]carbonyl}cyclohexyl)-3-[4-(trifluoromethyl)phenyl]acrylamide] gave an IC50 of under 1 nM. Work on `COC[C@@H]1Nc2ccccc2[C@H]2[C@@H]1CCN2C(=O)[C@H]1CCCC[C@H]1NC(=O)/C=C/c1ccc(C(F)(F)F)cc1` [Example 209] yielded an IC50 of under 1 nM. `COC[C@@H]1Nc2ccccc2[C@H]2[C@@H]1CCN2C(=O)[C@H]1CCCC[C@H]1NC(=O)c1ccc(-n2cnc(C)c2)cc1` [Example 272, N-((1R,2S)-2-{[(3aR,4R,9bR)-4-(Methoxymethyl)-2,3,3a,4,5,9b-hexahydro-1H-pyrrolo[3,2-c]quinolin-1-yl]carbonyl}cyclohexyl)-4-(4-methyl-1H-imidazol-1-yl)benzamide] showed an IC50 of under 1 nM. For `COc1ccccc1C(=O)N[C@@H]1CCCC[C@@H]1C(=O)N1CC[C@@H]2[C@H](c3ccccc3)Nc3ccccc3[C@@H]21` [Example 94, 2-Methoxy-N-((1R,2S)-2-{[(3aR,4R,9bR)-4-phenyl-2,3,3a,4,5,9b-hexahydro-1H-pyrrolo[3,2-c]quinolin-1-yl]carbonyl}cyclohexyl)benzamide], the IC50 was under 10 nM. For `Cc1cc(C(=O)N[C@@H]2CCCC[C@@H]2C(=O)N2CC[C@@H]3[C@H](c4ccsc4)Nc4ccccc4[C@@H]32)ccc1C(N)=O` [Example 191, 2-Methyl-N^4-((1R,2S)-2-{[(3aR,4R,9bR)-4-(3-thienyl)-2,3,3a,4,5,9b-hexahydro-1H-pyrrolo[3,2-c]quinolin-1-yl]carbonyl}cyclohexyl)terephthalamide], the IC50 was under 1 nM. For `COC[C@@H]1Nc2ccccc2[C@H]2[C@@H]1CCN2C(=O)[C@H]1CCCC[C@H]1NC(=O)c1ccc(C)nc1` [Example 211, N-((1R,2S)-2-{[(3aR,4R,9bR)-4-(Methoxymethyl)-2,3,3a,4,5,9b-hexahydro-1H-pyrrolo[3,2-c]quinolin-1-yl]carbonyl}cyclohexyl)-6-methylnicotinamide], the IC50 was under 10 nM. `O=C(/C=C/c1ccc(F)cc1)N[C@@H]1CCCC[C@@H]1C(=O)N1CC[C@@H]2[C@H](c3ncc[nH]3)Nc3ccccc3[C@@H]21` [Example 297, (2E)-3-(4-Fluorophenyl)-N-((1R,2S)-2-{[(3aR,4R,9bR)-4-(1H-imidazol-2-yl)-2,3,3a,4,5,9b-hexahydro-1H-pyrrolo[3,2-c]quinolin-1-yl]carbonyl}cyclohexyl)acrylamide] gave an IC50 of under 1 nM. With `COC[C@@H]1Nc2ccccc2[C@H]2[C@@H]1CCN2C(=O)[C@H]1CCCC[C@H]1NC(=O)c1ccc(-c2cnco2)cc1` [Example 290, N-((1R,2S)-2-{[(3aR,4R,9bR)-4-(Methoxymethyl)-2,3,3a,4,5,9b-hexahydro-1H-pyrrolo[3,2-c]quinolin-1-yl]carbonyl}cyclohexyl)-4-(1,3-oxazol-5-yl)benzamide] the IC50 was under 1 nM. For `CC(C)c1ccc(NC(=O)N[C@@H]2CCCC[C@@H]2C(=O)N2CC[C@@H]3[C@H](c4ccccc4)Nc4ccccc4[C@@H]32)cc1` [Example 150, N-(4-Isopropylphenyl)-N′-((1R,2S)-2-{[(3aR,4R,9bR)-4-phenyl-2,3,3a,4,5,9b-hexahydro-1H-pyrrolo[3,2-c]quinolin-1-yl]carbonyl}cyclohexyl)urea], the IC50 was under 10 nM. Compound `Cc1occc1[C@@H]1Nc2ccccc2[C@H]2[C@@H]1CCN2C(=O)[C@H]1CCCC[C@H]1NC(=O)c1ccccc1` [Example 75, N-((1R,2S)-2-{[(3aR,4R,9bR)-4-(2-Methyl-3-furyl)-2,3,3a,4,5,9b-hexahydro-1H-pyrrolo[3,2-c]quinolin-1-yl]carbonyl}cyclohexyl)benzamide] has an IC50 of under 10 nM. `COC[C@@H]1Nc2ccccc2[C@H]2[C@@H]1CCN2C(=O)[C@H]1CCCC[C@H]1NC(=O)Nc1ccc2c(c1)OCO2` [Example 208, N-1,3-Benzodioxol-5-yl-N′-((1R,2S)-2-{[(3aR,4R,9bR)-4-(methoxymethyl)-2,3,3a,4,5,9b-hexahydro-1H-pyrrolo[3,2-c]quinolin-1-yl]carbonyl}cyclohexyl)urea] was tested, and the IC50 was under 1 nM. Work on `COC[C@@H]1Nc2ccccc2[C@H]2[C@@H]1CCN2C(=O)[C@H]1CCCC[C@H]1NC(=O)c1onc2ccccc12` [Example 249, N-((1R,2S)-2-{[(3aR,4R,9bR)-4-(Methoxymethyl)-2,3,3a,4,5,9b-hexahydro-1H-pyrrolo[3,2-c]quinolin-1-yl]carbonyl}cyclohexyl)-2,1-benzisoxazole-3-carboxamide] yielded an IC50 of under 10 nM. Work on `COC[C@@H]1Nc2ccccc2[C@H]2[C@@H]1CCN2C(=O)[C@H]1CCCC[C@H]1NC(=O)c1ccc(S(N)(=O)=O)cc1` [Example 245, 4-(Aminosulfonyl)-N-((1R,2S)-2-{[(3aR,4R,9bR)-4-(methoxymethyl)-2,3,3a,4,5,9b-hexahydro-1H-pyrrolo[3,2-c]quinolin-1-yl]carbonyl}cyclohexyl)benzamide] yielded an IC50 of under 10 nM. Work on `N#Cc1ccc(C(=O)N[C@@H]2CCCC[C@@H]2C(=O)N2CC[C@@H]3[C@H](c4ncc[nH]4)Nc4ccccc4[C@@H]32)cc1` [Example 304, 4-cyano-N-((1R,2S)-2-{[(3aR,4R,9bR)-4-(1H-imidazol-2-yl)-2,3,3a,4,5,9b-hexahydro-1H-pyrrolo[3,2-c]quinolin-1-yl]carbonyl}cyclohexyl)benzamide] yielded an IC50 of under 1 nM. Work on `O=C(N[C@@H]1CCCC[C@@H]1C(=O)N1CC[C@@H]2[C@H](c3ccc(F)cc3)Nc3ccccc3[C@@H]21)c1ccccc1` (relative stereo) [Example 9, N-((1R,2S)-2-{[(3aR*,4R*,9bR*)-4-(4-Fluorophenyl)-2,3,3a,4,5,9b-hexahydro-1H-pyrrolo[3,2-c]quinolin-1-yl]carbonyl}cyclohexyl)benzamide] yielded an IC50 of under 10 nM. `O=C(N[C@@H]1CCCC[C@@H]1C(=O)N1CC[C@@H]2[C@H](c3ccccc3)Nc3ccccc3[C@@H]21)c1ccc(Cl)cc1` [Example 114, 4-Chloro-N-((1R,2S)-2-{[(3aR,4R,9bR)-4-phenyl-2,3,3a,4,5,9b-hexahydro-1H-pyrrolo[3,2-c]quinolin-1-yl]carbonyl}cyclohexyl)benzamide] gave an IC50 of under 10 nM. Work on `COCCCNC(=O)N[C@@H]1CCCC[C@@H]1C(=O)N1CC[C@@H]2[C@H](c3ccccc3)Nc3ccccc3[C@@H]21` [Example 161, N-(3-Methoxypropyl)-N′-((1R,2S)-2-{[(3aR,4R,9bR)-4-phenyl-2,3,3a,4,5,9b-hexahydro-1H-pyrrolo[3,2-c]quinolin-1-yl]carbonyl}cyclohexyl)urea] yielded an IC50 of under 10 nM. In the case of `O=C(N[C@@H]1CCCC[C@@H]1C(=O)N1CC[C@@H]2[C@H](c3ccccc3)Nc3ccccc3[C@@H]21)c1ccc2ccccc2c1` [Example 107, N-((1R,2S)-2-{[(3aR,4R,9bR)-4-Phenyl-2,3,3a,4,5,9b-hexahydro-1H-pyrrolo[3,2-c]quinolin-1-yl]carbonyl}cyclohexyl)-2-naphthamide], the IC50 is reported as under 1 nM. `O=C(N[C@@H]1CCCC[C@@H]1C(=O)N1CC[C@@H]2[C@H](c3cc[nH]c3)Nc3ccccc3[C@@H]21)c1ccccc1` (relative stereo) [Example 52, N-((1R,2S)-2-{[(3aR*,4R*,9bR*)-4-(1H-Pyrrol-3-yl)-2,3,3a,4,5,9b-hexahydro-1H-pyrrolo[3,2-c]quinolin-1-yl]carbonyl}cyclohexyl)benzamide] was tested, and the IC50 was under 10 nM.
